Reference: US8846695B2, “Treatment for diabetes in patients with inadequate glycemic control despite metformin therapy comprising a DPP-IV inhibitor” (Boehringer Ingelheim International GmbH, priority 2009, dated 2014)

Tests used:
[1] = Adverse events and hypoglycaemia in the 12-week add-on to metformin study; type: in vivo, human; settings: 1, 5 or 10 mg qd with metformin, 12 weeks
Source text: In total, 106 patients (43.1%) experienced adverse events (AEs) with similar incidences across all treatments. Most frequently reported episodes were nasopharyngitis (7.5%), diarrhoea (3.3%), and nausea (3.0%). […] Ten patients (3.7%) experienced serious AEs but none of these events were considered drug-related.
The addition of BI 1356 to MET in patients with T2DM inadequately controlled on MET alone achieved clinically relevant and statistically significant reductions in HbA1c.

[2] = Thorough QT study, single dose, healthy female and male subjects (QTcI); type: in vivo, human; settings: therapeutic (5 mg) and supratherapeutic (100 mg)
Method: A thorough QT study of BI 1356, a potent and selective dipeptidyl peptidase-4 inhibitor, was performed in healthy female and male subjects, using 5 mg (therapeutic dose) and 100 mg. The study was a randomised, single-dose, placebo-controlled, double-blind, four-way crossover study with open-label moxifloxacin (400 mg) as positive control. Triplicate 12-lead electrocardiograms (ECGs) of 10 seconds' duration were recorded for all subjects pre-dose and at various time points over a 24-h period after each treatment. The primary parameter was the subject-specific heart rate corrected QT interval (QTcI).

[3] = 12-week randomized double-blind add-on to metformin study: HbA1c and FPG; design: placebo corrected mean reduction in HbA1c: dose or concentration left out as unconfirmed
Method: Effects were compared to add-on of placebo (PBO) or of open label glimepiride (GLIM; 1 to 3 mg qd) in a 12-week randomized, double-blind study.
The primary endpoint was change from baseline in HbA1c, adjusted for prior antidiabetic medication.

[4] = human, in vivo
[5] = 5 mg daily, 12 weeks, add-on to metformin

With `CC#CCn1c(N2CCC[C@@H](N)C2)nc2c1c(=O)n(Cc1nc(C)c3ccccc3n1)c(=O)n2C` [BI 1356] the drug-related hypoglycaemia [1] was “no case of hypoglycaemia was reported”, the “prolongation of the QT interval” value [2] was “did not prolong the QT interval” and the “percentage of patients achieving HbA1c lowering of ≧0.5% from baseline” value [3, 5] was 53.2%. For the same compound, the “percentage of patients achieving HbA1c lowering of ≧1.0% from baseline” value [3, 5] was 27.4%, the “percentage of patients achieving a HbA1c value” [3, 5] was 14.5% and the “time at which maximum glucose-lowering effects are reached” value ([3]; 1, 5 and 10 mg once daily added to metformin, plateau thereafter) was 8 weeks. The “form and path of excretion” value [4] was “primarily excreted unchanged via the bile”.

In the case of `CCC1=C(C)CN(C(=O)NCCc2ccc(S(=O)(=O)NC(=O)N[C@H]3CC[C@H](C)CC3)cc2)C1=O` [GLIM, glimepiride, reference compound], the “placebo corrected mean reduction in HbA1c” value ([3]; Week 12, add-on to metformin, n=64) is reported as −0.90%.
